Test results reported in patent US9645154B2, “Method for detecting cancer cell” (ARKRAY, Inc., priority 2010, dated 2017).

Tests used:
[1] = system: human gastric cancer cells (SNU-1); assay: Labeled sugar incorporation, fluorescence microscopy image analysis (positive rate); format: cell-based; settings: threshold value 490
Excerpt: In accordance with the conventional method, cultured human fibrosarcoma cell line HT1080 (DS Pharma Biomedical Co., Ltd.) was harvested with trypsin (Invitrogen). The human gastric cancer cell line SNU-1 (ATCC), which is a suspension cell line, was directly harvested without any trypsin treatment. The cell suspension of the harvested cancer cells was centrifuged, and the supernatant was removed. The cells were resuspended with Dulbecco's PBS (−) (Nissui Pharmaceutical Co., Ltd.) and centrifuged, and the supernatant was removed again.
The number of the cells was counted for each cell line using a hemacytometer in accordance with the conventional method, and then 10^5 to 10^6 cells per sample (cell suspension) was aliquoted. Each of the sample was centrifuged to remove the supernatant. Subsequently, 2-NBDG (Wako Pure Chemical Industries, Ltd.; at the final concentration given in Table 3 or 4) dissolved in Dulbecco's PBS (−) was added thereto, and the cells were suspended well. […] The image was captured with a fluorescence microscope (Nikon Corp.) using B-2A filter combination (Nikon Corp.). […] EX (excitation wavelength): 475±15 nm, DM: 505 nm or longer, BA (fluorescence wavelength) 520 nm or longer.
The acquired images were analyzed using an image analysis software NIS-ELEMENTS (trade name, Nikon Corp.) to evaluate the fluorescence intensity of the cell. […]

[2] = system: Mixture of blood cells and PC3 cells; assay: Aminolevulinic acid labeling combined with anti-CD45/anti-CD34 and anti-EpCAM antibodies; format: cell-based, human; settings: ALA: 0.3 mM, FeC12: 0.3 mM, Ascorbic acid: 0.3 mM, 37° C., 60 min, threshold value 216
Excerpt: Blood was collected from a human subject using a vacuum blood collection tube (with EDTA•2K). Blood cells were separated using HetaSep (STEMCELL Technologies) in accordance with the manufacturer's instructions.
In accordance with the conventional method, cultured human prostate cancer cell line (PC3, DS Pharma Biomedical Co., Ltd.) was harvested with trypsin (Invitrogen). The cell suspension of the harvested cancer cells was centrifuged, and the supernatant was removed. The cells were resuspended with Dulbecco's PBS (+) (Nissui Pharmaceutical Co., Ltd.) and centrifuged, and the supernatant was removed again.
The number of the cells in the suspension of the isolated blood cells was counted using a hemacytometer in accordance with the conventional method. Further, the number of the cells was also counted for the human prostate cancer cell line (PC3) in a similar manner, and the cells were added to the blood cell suspension to give a cell number of 1% of that of the blood cells. […]
The number of the cells was counted using a hemacytometer in accordance with the conventional method, and then 10^5 to 10^6 cells per sample (cell suspension) was aliquoted. […] The image was captured with a fluorescence microscope (Nikon Corp.). Protoporphyrin IX was detected with the fluorescence filter set 1, the PE-labeled anti-EpCAM antibody was detected with the fluorescence filter set 2, and the FITC-labeled anti-CD45 antibody and the FITC-labeled anti-CD34 antibody were detected with the fluorescence filter set 3.
Wavelengths for the fluorescence filter set 1: EX (excitation wavelength) 402±7.5 nm, DM 430 nm or longer, BA (fluorescence wavelength) 625±15 nm.
Wavelengths for the fluorescence filter set 2: EX (excitation wavelength) 535±25 nm, DM 575 nm or longer, BA (fluorescence wavelength) 590 nm or longer.
Wavelengths for the fluorescence filter set 3: EX (excitation wavelength) 475±15 nm, DM 505 nm or longer, BA (fluorescence wavelength) 525±10 nm. […]

SMILES	Positive rate (Cancer cells) ([1]; hemolyzed, 10 mM, 5 min, 23° C.) [%]	Positive rate (Cancer cells) ([1]; single, Glucose conc.: 1 mM, Temp.: 37° C., Time: 30 min) [%]	False-positive rate (using α-CD45/34) ([2]; FITC-α-CD45/CD34 antibody) [%]	Positive rate ([2]; PC3 at 1% of blood cells, hemolyzed) [%]	False-positive rate (without using α-CD45/34) [2] [%]
O=[N+]([O-])c1ccc(N[C@H]2C(O)O[C@H](CO)[C@@H](O)[C@@H]2O)c2nonc12 (stereo partly drawn) [2-NBDG, 2-[N-(7-nitrobenz-2-oxa-1,3-diazol-4-yl)amino]-2-deoxy-D-glucose]	50.0	50.0	–	–	–
NCC(=O)CCC(=O)O [aminolevulinic acid, 5-amino-4-oxopentanoic acid]	–	–	0.0	85	1.1
